Patent US7563862B2, “Neural regeneration peptides and methods for their use in treatment of brain damage” (Neuren Pharmaceuticals Limited, priority 2001, dated 2009)
Ends that are not written are not given here.

Columns and labels:
wild-type PC-12 cells = assay: haptotactic migration assay, PC-12 cells; assay type: cell-based; conditions: 1 ng/ml coating followed by matrigel/PDL, 100,000 cells
Procedure: (§1) NRPs were tested for migration-inducing/chemoattractive activity on mouse neural stem cells, EGF-dependent immortalized mouse neural stem cell line MEB5 and wild-type PC-12 cells in a haptotactic migration assay as described below.
(§2) Initial NRP Coating. Control wells of Transwell plates (Coming) with 12 μm pore size were coated in 1.5 ml of the BSA/PBS vehicle. Remaining plates were coated using various concentrations of NRPs ranging between 1-100 ng/ml (prepared in PBS containing 10 ug/ml BSA). The plates were then incubated at 37° C. for 1 hr to coat. Wells were then rinsed 2× with 1 ml sterile PBS.
(§3) Laminin ([…]) for MEB-5 cells, PDL (50 μg/ml)+Matrigel for mouse primary stem cells and fibronectin (25 ug/ml)+matrigel for PC-12 cells were used as extracellular matrix (ECM) coating for the cells. All ECM compounds were diluted in PBS. 1.5 ml of the ECM per well was incubated for 2 hrs at room temperature. The wells were then rinsed once with Iml serum-free media (e.g. NB/B27) followed by 1 ml PBS wash.
(§4) A 5 ug/mL PDL/PLL mixture (in PBS) was used to coat inserts. Subsequently the inserts were rinsed with MilliQ water. […]

embryonic cortical cells = assay: haptotactic migration assay, cortical cells; assay type: cell-based, rat; conditions: 1 day in vitro
Source text: To test the cell adhesion and neuronal migration inducing properties of the NRPs a haptotactic migration cell assay was developed (Lu et al.,2001). For this purpose Transwell® cell culture dishes (Costar) with fitting inserts having pores therein with a 12 μm pore size were used to cultivate striatal and neocortical cells. In general, a test agent was adhered to the surface of a culture dish and an insert having pores was placed in culture medium over but not in contact with the surface of the culture dish. Test cells were placed in the inserts, and any cells migrating through the pores and onto the surface of the culture dish reflected chemattractiveness by the test molecule. Under these conditions, the surface of the culture dish would, over time, release some NRP molecules into the culture medium. It can be appreciated that the concentration of “free” NRP would be greater nearer the surface of the culture dish than at distances farther away from the culture dish, thereby creating a gradient in NRP concentration. […] By counting the number and morphology of such migrant cells, effects of NRPs on neuronal migration and differentiation can be evaluated. […]
For seeding striatal cells, 1.5 ml of Neurobasal/B27 medium was put into the culture dishes and 0.5 ml of NeurobasaVB27 medium was put into the insert. The assay was ready for cell seeding. […]

MEB-5 cells = assay: haptotactic migration assay, MEB-5 cells; assay type: cell-based, mouse; conditions: 1 ng/ml coating, 200,000 cells
Procedure: as §1, §2, §3, §4

Row | Substance | more PC-12 cells migrated compared with BSA vehicle (wild-type PC-12 cells) | more neurons migrated to the culture dish bottom compared to BSA control (embryonic cortical cells; 15 ng immobilized, 1 pg/ml in medium) | number of cells with neurite outgrowth (embryonic cortical cells; 0.1 and 1 μg/ml coating in BSA) | more MEB-5 cells migrated compared with BSA-vehicle (MEB-5 cells)
1 | SEPEARRAPGRKGGVVCASLAADW-NH2 [NRP-7 segment SW, 24-mer form of mouse NRP-7] | 333% | 49.8% | significantly increased | 
2 | KDPEARRAPGSLHPCLAAS-NH2 [NRP-2 segment KS, 19-mer fragment of NRP-2] |  |  |  | 109%
